Measurements reported in ChEMBL document CHEMBL5338815 (J Med Chem, 2023).
The source made the active and inactive calls. No cut-off for these calls is given here.

Assays:
PANC-1 = assay: Inhibition of colony formation in human PANC-1 cells at […] incubated for 14 days drug medium changed for every 2 days by crystal violet staining based analysis; type: cell-based; settings: dose 2.5 µM, time 14.0 day
[1] = molecular target: T1, Histone-lysine N-methyltransferase EHMT1 (Homo sapiens, UniProt Q9H9B1); assay: Inhibition of GLP (unknown origin) by AlphaLISA assay
T1 sequence (Q9H9B1 whole entry): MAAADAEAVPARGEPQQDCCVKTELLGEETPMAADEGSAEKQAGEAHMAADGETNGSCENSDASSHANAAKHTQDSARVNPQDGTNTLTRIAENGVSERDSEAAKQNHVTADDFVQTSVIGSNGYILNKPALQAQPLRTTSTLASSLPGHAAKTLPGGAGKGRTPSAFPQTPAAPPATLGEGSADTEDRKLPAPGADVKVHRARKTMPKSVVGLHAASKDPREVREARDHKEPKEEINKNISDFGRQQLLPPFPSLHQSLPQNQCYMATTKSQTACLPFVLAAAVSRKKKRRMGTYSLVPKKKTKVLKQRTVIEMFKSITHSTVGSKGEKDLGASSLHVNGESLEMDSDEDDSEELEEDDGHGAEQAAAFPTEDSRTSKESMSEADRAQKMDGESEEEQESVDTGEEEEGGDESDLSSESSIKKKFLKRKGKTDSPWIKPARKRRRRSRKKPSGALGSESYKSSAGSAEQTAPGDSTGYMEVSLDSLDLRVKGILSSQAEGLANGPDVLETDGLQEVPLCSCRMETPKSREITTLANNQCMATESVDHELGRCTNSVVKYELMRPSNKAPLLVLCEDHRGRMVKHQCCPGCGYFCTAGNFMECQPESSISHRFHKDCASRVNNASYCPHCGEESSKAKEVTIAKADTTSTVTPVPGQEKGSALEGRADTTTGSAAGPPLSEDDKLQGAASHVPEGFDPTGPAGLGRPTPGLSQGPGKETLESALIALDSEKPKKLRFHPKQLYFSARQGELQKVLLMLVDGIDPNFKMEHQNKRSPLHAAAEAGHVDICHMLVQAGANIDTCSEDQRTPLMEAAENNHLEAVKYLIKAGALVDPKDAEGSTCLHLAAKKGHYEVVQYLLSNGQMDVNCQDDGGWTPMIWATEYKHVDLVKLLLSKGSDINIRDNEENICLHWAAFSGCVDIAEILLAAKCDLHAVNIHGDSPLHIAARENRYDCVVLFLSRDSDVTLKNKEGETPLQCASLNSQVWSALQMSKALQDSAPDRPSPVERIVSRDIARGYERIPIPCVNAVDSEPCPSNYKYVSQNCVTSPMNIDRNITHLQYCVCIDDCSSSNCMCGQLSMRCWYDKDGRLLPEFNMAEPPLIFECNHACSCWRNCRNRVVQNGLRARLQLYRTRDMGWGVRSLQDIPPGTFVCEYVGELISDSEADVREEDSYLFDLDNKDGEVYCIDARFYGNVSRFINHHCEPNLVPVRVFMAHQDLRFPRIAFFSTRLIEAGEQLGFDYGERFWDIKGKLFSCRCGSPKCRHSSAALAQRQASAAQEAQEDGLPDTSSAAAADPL

MDA-MB-231 = assay: Antiproliferative activity against human MDA-MB-231 cells assessed as cell viability measured after 24 hrs by CCK-8 assay; type: functional, cell-based; settings: MDA-MB-231, 24 h
[2] = Toxicity in Balb/c mouse xenografted with human PANC-1 cells assessed as body weight change at 2 mg/kg, ip treated for 22 days relative to control; type: organism-based; settings: in vivo, 528 h, time 22 day

## C=CC(=O)N(C)c1nc(NC2CCN(C)CC2)c2cc(OC)c(OCCCN3CCCC3)cc2n1
PANC-1
  inhibition: Active
[1]
  IC50: 5 nM
MDA-MB-231
  IC50: 2880 nM
[2]
  Activity: Non-Toxic
